Among the data in patent US12358886B2, “Heterocyclic compounds for use in the treatment of cancer” (Artios Pharma Limited, priority 2019, dated 2025) are IC50 values, retold here.

The target in the first assay is Polθ protein (amino acids 2-2590) (Homo sapiens, UniProt O75417). In words: Polθ full length enzyme potency assay (PicoGreen). To be noted: Polθ IC50 (nM), full length N-His, C-term FLAG tagged Polθ, PicoGreen fluorescence, 12 point concentration response.
Polθ protein (amino acids 2-2590), sequence (O75417 2-2590): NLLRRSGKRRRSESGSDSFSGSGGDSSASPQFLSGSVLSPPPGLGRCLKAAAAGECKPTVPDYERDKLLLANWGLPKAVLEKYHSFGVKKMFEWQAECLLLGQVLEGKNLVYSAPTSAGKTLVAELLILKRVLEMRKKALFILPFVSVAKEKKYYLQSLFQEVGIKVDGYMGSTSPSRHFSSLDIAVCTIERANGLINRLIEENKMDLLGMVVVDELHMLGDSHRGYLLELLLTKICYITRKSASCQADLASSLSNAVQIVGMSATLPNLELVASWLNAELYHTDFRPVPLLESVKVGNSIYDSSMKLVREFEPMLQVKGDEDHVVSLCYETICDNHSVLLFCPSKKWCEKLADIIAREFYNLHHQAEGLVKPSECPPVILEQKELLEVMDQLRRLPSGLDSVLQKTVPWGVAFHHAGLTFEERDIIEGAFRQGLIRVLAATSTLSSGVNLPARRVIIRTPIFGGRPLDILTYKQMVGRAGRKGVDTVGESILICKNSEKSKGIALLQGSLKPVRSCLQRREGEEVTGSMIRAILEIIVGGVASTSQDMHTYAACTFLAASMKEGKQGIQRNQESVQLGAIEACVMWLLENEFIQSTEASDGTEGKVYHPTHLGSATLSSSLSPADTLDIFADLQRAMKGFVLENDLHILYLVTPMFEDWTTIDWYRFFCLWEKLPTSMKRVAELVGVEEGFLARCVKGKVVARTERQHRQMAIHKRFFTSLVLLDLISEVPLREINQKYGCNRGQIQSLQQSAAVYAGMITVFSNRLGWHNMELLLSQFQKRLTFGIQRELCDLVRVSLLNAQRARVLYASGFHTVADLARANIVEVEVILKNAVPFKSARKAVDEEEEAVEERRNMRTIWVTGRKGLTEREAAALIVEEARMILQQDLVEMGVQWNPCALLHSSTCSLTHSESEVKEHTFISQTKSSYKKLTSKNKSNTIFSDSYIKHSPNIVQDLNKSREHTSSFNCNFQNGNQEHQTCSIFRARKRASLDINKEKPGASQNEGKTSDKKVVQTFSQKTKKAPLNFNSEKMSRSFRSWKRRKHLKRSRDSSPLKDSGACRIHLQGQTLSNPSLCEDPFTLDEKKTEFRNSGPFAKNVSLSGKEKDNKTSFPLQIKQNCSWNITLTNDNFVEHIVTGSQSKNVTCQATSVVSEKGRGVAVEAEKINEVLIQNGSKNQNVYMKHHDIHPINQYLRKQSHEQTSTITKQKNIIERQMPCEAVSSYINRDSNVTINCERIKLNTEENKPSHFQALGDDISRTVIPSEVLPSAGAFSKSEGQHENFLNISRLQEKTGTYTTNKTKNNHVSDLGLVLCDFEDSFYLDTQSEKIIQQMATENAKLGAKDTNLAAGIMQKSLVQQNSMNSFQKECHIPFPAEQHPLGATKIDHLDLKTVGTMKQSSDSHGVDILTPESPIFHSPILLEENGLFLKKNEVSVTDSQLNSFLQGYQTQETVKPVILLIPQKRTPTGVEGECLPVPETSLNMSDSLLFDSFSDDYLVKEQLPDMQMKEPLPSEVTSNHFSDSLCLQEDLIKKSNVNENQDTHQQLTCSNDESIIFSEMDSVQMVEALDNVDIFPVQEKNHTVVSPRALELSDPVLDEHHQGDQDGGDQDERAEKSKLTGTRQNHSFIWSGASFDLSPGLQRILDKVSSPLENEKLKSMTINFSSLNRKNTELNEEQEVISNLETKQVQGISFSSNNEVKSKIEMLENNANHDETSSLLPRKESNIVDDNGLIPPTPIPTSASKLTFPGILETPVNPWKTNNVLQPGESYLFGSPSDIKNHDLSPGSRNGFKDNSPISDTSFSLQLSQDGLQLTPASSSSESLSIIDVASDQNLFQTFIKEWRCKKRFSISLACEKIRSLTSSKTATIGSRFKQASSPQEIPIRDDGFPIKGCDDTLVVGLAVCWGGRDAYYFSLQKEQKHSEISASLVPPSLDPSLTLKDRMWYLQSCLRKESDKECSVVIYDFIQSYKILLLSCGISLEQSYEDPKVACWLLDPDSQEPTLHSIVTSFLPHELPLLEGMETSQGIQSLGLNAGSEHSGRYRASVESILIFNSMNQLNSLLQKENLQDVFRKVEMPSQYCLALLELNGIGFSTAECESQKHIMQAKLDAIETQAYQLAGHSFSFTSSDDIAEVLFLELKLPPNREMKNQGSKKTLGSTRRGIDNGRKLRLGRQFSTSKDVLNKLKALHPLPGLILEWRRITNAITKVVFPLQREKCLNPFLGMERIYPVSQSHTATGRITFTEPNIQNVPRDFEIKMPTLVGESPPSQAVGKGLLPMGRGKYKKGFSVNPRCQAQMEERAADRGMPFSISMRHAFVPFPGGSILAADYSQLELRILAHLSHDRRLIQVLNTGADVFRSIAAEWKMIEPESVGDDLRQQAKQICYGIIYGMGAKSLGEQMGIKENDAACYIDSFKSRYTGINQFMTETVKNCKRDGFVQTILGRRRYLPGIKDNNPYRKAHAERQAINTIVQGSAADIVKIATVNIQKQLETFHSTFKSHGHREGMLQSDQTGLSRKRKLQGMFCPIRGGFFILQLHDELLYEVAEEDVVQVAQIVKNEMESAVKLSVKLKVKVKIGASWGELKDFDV
In general, IC50 refers to the point on the concentration scale where inhibition reaches its midpoint. `Cc1cc(C(F)(F)F)cc(N2C(=O)[C@H](O)[C@H](O)[C@H]2C(=O)N(C)c2ccc(F)c(Cl)c2)n1` [Example 72, (2S,3R,4R)—N-(3-Chloro-4-fluorophenyl)-3,4-dihydroxy-N-methyl-1-(6-methyl-4-(trifluoromethyl)pyridin-2-yl)-5-oxopyrrolidine-2-carboxamide] registered an IC50 of 32 nM.
Still for that read-out and setting: under `Cc1cc(C(F)(F)F)cc(N2C(=O)OC[C@H]2C(=O)N(C)c2ccc3cc[nH]c3n2)n1` [Example 127, (S)—N-Methyl-3-(6-methyl-4-(trifluoromethyl)pyridin-2-yl)-2-oxo-N-(1H-pyrrolo[2,3-b]pyridin-6-yl)oxazolidine-4-carboxamide] stands 15 nM; under `CN(C(=O)[C@@H]1COC(=O)N1c1cc(OC(F)F)cc(Cl)n1)c1ccc(F)c(Cl)c1` [Example 120, (S)-3-(6-Chloro-4-(difluoromethoxy)pyridin-2-yl)-N-(3-chloro-4-fluorophenyl)-N-methyl-2-oxooxazolidine-4-carboxamide], 94 nM; under `CCN(C(=O)[C@@H]1C[C@H](N2CCOCC2)CN1c1nc(C)cc(C)c1C#N)c1cccc(C)c1` [Example 42, (2S,4S)-1-(3-Cyano-4,6-dimethylpyridin-2-yl)-N-ethyl-4-morpholino-N-(m-tolyl)pyrrolidine-2-carboxamide], 25 nM.
Same read-out and setting: to `COc1cc(N(C)C(=O)[C@@H]2C[C@H](O)CN2c2nc(C)cc(C(F)(F)F)c2C#N)ccc1F` [Example 16, (2S,4S)-1-(3-Cyano-6-methyl-4-(trifluoromethyl)pyridin-2-yl)-N-(4-fluoro-3-methoxyphenyl)-4-hydroxy-N-methylpyrrolidine-2-carboxamide] belongs 274 nM; to `Cc1cc(C(F)(F)F)cc(N2C(=O)NC[C@H]2C(=O)N(C)c2ccc(F)c(Cl)c2F)n1` [Example 158, (S)—N-(3-Chloro-2,4-difluorophenyl)-N-methyl-3-(6-methyl-4-(trifluoromethyl)pyridin-2-yl)-2-oxoimidazolidine-4-carboxamide], 2 nM.
Still for that read-out and setting: to `Cc1cc(C(F)(F)F)c(C#N)c(N2C[C@@H](O)C[C@H]2C(=O)N(C)c2ccc(F)c(C)c2)n1` [Example 6, (2S,4S)-1-(3-Cyano-6-methyl-4-(trifluoromethyl)pyridin-2-yl)-N-(4-fluoro-3-methylphenyl)-4-hydroxy-N-methylpyrrolidine-2-carboxamide] belongs 11 nM; to `Cc1cc(C(F)(F)F)cc(N2C(=O)N(CCN3CCN(CCO)CC3)C[C@H]2C(=O)N(C)c2ccc(F)c(Cl)c2F)n1` [Example 209, (S)-N-(3-Chloro-2,4-difluorophenyl)-1-(2-(4-(2-hydroxyethyl)piperazin-1-yl)ethyl)-N-methyl-3-(6-methyl-4-(trifluoromethyl)pyridin-2-yl)-2-oxoimidazolidine-4-carboxamide], 8 nM; to `CCc1c(F)ccc(N(C)C(=O)[C@@H]2COC(=O)N2c2cc(C(F)(F)F)cc(C)n2)c1F` [Example 108, (S)—N-(3-Ethyl-2,4-difluorophenyl)-N-methyl-3-(6-methyl-4-(trifluoromethyl)pyridin-2-yl)-2-oxooxazolidine-4-carboxamide], 12 nM.
`Cc1cc(C(F)(F)F)c(C#N)c(N2C[C@@H](N3CCOC(CO)C3)C[C@H]2C(=O)N(C)c2ccc(F)c(Cl)c2)n1` (stereo partly drawn) [Example 151, (2S,4S)-N-(3-Chloro-4-fluorophenyl)-1-(3-cyano-6-methyl-4-(trifluoromethyl)pyridin-2-yl)-4-(2-(hydroxymethyl)morpholino)-N-methylpyrrolidine-2-carboxamide]: half-maximal inhibition (IC50) required 23 nM.
Still for that read-out and setting: to `Cc1cc(C(F)(F)F)cc(N2C(=O)N(CC(N)=O)C[C@H]2C(=O)N(C)c2ccc(F)c(Cl)c2)n1` [Example 184, (S)-1-(2-Amino-2-oxoethyl)-N-(3-chloro-4-fluorophenyl)-N-methyl-3-(6-methyl-4-(trifluoromethyl)-pyridin-2-yl)-2-oxoimidazolidine-4-carboxamide] belongs 13 nM; to `C=C(C)c1cc(C)nc(N2C(=O)OC[C@H]2C(=O)N(C)c2ccc(F)c(Cl)c2)c1` [Example 117, (S)—N-(3-Chloro-4-fluorophenyl)-N-methyl-3-(6-methyl-4-(prop-1-en-2-yl)pyridin-2-yl)-2-oxooxazolidine-4-carboxamide], 61 nM; to `Cc1cc(C(F)(F)F)c(C#N)c(N2CCC[C@H]2C(=O)N(C)c2cc(Cl)c3ccn(C)c3n2)n1` [Example 244, (S)—N-(4-Chloro-1-methyl-pyrrolo[2,3-b]pyridin-6-yl)-1-[3-cyano-6-methyl-4-(trifluoromethyl)-2-pyridyl]-N-methyl-pyrrolidine-2-carboxamide], 130 nM.
Still for that read-out and setting: to `Cc1cc(C(F)(F)F)cc(N2C(=O)CC[C@H]2C(=O)N(C)c2ccc(F)c(C)n2)n1` [Example 60, (S)—N-(5-Fluoro-6-methylpyridin-2-yl)-N-methyl-1-(6-methyl-4-(trifluoromethyl)pyridin-2-yl)-5-oxopyrrolidine-2-carboxamide] belongs 76 nM; to `Cc1cc(Br)cc(N2C(=O)OC[C@H]2C(=O)N(C)c2ccc(F)c(Cl)c2)n1` [Example 116, (S)-3-(4-Bromo-6-methylpyridin-2-yl)-N-(3-chloro-4-fluorophenyl)-N-methyl-2-oxooxazolidine-4-carboxamide], 71 nM; to `CCN(C(=O)[C@@H]1C[C@H](N(C)[C@@H]2COCC[C@H]2O)CN1c1cc(C(F)(F)F)cc(C)n1)c1ccc(F)c(F)c1` [Example 140, (2S,4S)-N-(3,4-Difluorophenyl)-N-ethyl-4-(((3R,4R)-4-hydroxytetrahydro-2H-pyran-3-yl)(methyl)amino)-1-(6-methyl-4-(trifluoromethyl)pyridin-2-yl)pyrrolidine-2-carboxamide], 60 nM.
The same measure, in the same setting: to `CCN(C(=O)[C@@H]1C[C@H](N(C)[C@@H]2CCOC[C@H]2O)CN1c1cc(C(F)(F)F)cc(C)n1)c1ccc(F)c(F)c1` [Example 139, (2S,4S)—N-(3,4-Difluorophenyl)-N-ethyl-4-(((3S,4R)-3-hydroxytetrahydro-2H-pyran-4-yl)(methyl)amino)-1-(6-methyl-4-(trifluoromethyl)pyridin-2-yl)pyrrolidine-2-carboxamide] belongs 164 nM; to `CCN(C(=O)[C@@H]1C[C@H](N[C@H]2CCC[C@H]2O)CN1c1cc(C(F)(F)F)cc(C)n1)c1ccc(F)c(F)c1` [Example 134, (2S,4S)-N-(3,4-Difluorophenyl)-N-ethyl-4-(((1S,2R)-2-hydroxycyclopentyl)amino)-1-(6-methyl-4-(trifluoromethyl)pyridin-2-yl)pyrrolidine-2-carboxamide], 124 nM.

Staying with this assay, now noted: read-out: Polθ IC50; full length N-His, C-term FLAG tagged Polθ, PicoGreen fluorescence, 12 point concentration response.
For the compound `Cc1cc(C(F)(F)F)cc(N2C(=O)OC[C@H]2C(=O)N(C)c2cccc(Cl)c2F)n1` [Example 95, (S)-N-(3-Chloro-2-fluorophenyl)-N-methyl-3-(6-methyl-4-(trifluoromethyl)pyridin-2-yl)-2-oxooxazolidine-4-carboxamide], the IC50 was 15 nM.
With `Cc1cc(C(F)(F)F)cc(N2C(=O)N(CC3CN(C)C(=O)O3)C[C@H]2C(=O)N(C)c2ccc(F)c(Cl)c2F)n1` (single isomer, unassigned; isomer 1) [Example 229], the half-inhibitory concentration (IC50) was determined as 15 nM.
